≈ marks a conversion by molar mass, not a printed value.
Assay: physchem
Experimental: In situ dissolution experiments were performed with a μDISS Profiler apparatus (pION Inc., MA, USA). The system consists of an integrated diode array spectrophotometer connected to a fiber optic UV probe located directly in the reaction vessel (20 ml scintillation vial) and measures the concentration as a function of time, without filtering the solution. Measurement of the dissolution kinetics was carried out at 220 nm and 270 nm, which are optimal for the UV detection of resveratrol and […], respectively. The concentrations of the compounds in the dissolution media (water, buffer pH=4, pH=6) were calculated by means of a standard curve.
The calibration curve was obtained in a mixture of ethanol and water at 8/2 (vol/vol). Stock solutions of resveratrol and resveratrol-piperazine co-crystal, Form 1, respectively, were prepared at 10 mg/ml. The calibration was performed in a 20 ml volume.
The dissolution was performed in 25 mM phosphate buffer (Na2HPO4/KH2PO4) at pH 6, at a concentration of 1 mg/ml resveratrol and resveratrol-piperazine co-crystal, Form 1, respectively. An amount of 20 mg of each compound was dispensed in 20 ml volume of buffer. The process was monitored for 90 minutes.
The calibration was performed in a mixture of ethanol and sodium acetate buffer pH 4.0 at 8/2 (vol/vol) and final concentration of 25 mM sodium acetate. Stock solutions of resveratrol and resveratrol-piperazine co-crystal, Form 1, respectively, were prepared at 10 mg/ml in the solvent mixture. The calibration was performed in 20 ml volume.
The dissolution was performed in 25 mM sodium acetate buffer at pH 4.0, at a concentration of 1 mg/ml resveratrol and resveratrol-piperazine co-crystal, Form 1 (RP1), respectively. An amount of 20 mg compound was dispensed in 20 ml volume of buffer. The process was monitored for 90 minutes.

| aqueous solubility | solubility compared to that of resveratrol (pH 4) | solubility at 90 min (aqueous buffer, thermodynamic from solid) [mg/mL] | Compound | time maintained in solution, pH 4 buffer versus pH 6 buffer (FIG. 14 and FIG. 13) |
| --- | --- | --- | --- | --- |
| 65-100 micrograms/ml | three times higher | – | C1CNCCN1.Oc1ccc(C=Cc2cc(O)cc(O)c2)cc1 [resveratrol-piperazine co-crystal, Form 1] | longer than in the case of the pH 6 buffer |
| – | – | 0.03 (≈ 131 µM) | Oc1ccc(C=Cc2cc(O)cc(O)c2)cc1 [resveratrol] | – |

From patent publication US11560358B2, “Resveratrol-piperazine co-crystals” (LETAVIS AB, priority 2018, dated 2023)
